pEC50: −log10 of the molar value. “Also recorded” adds a separate entry of the source. Where two headings read alike, the source gives them in different places.
Assays:
[1] = system: ornithine decarboxylase (ODC); assay: suppression of TPA induced ornithine decarboxylase (ODC) in mouse skin; assay type: in vivo; details: for activity in inhibiting ODC induction by TPA (in words): mouse, in vivo
Procedure: In the ODC assay, either 13-cis-retinoic acid or trans-retinoic acid was employed. The following Table summarizes the result of the ODC assays.
In the screening tests of the Table, the selected retinoids in 0.2 ml of acetone were applied 1 hour before the application of 10 nmole of TPA to the shaved backs of mice; the mice where then sacrificed for ODC assay 5 hours after TPA treatment. Epidermus was separated, homogenized, and centrifuged at 30,000×g. Soluble epidermal ODC activity was assayed. The retinoids were evaluated in three independent experiments (3 groups of mice with 3 mice per group) and the results from the experiments were normalized (% inhibition) for comparison. […] Which standard is used appears to be relatively unimportant for determining activity in the assay, but the data presented in the Table identifies the standard for sake of clarity and accuracy of presentation. Thus, the presence of the heteroatom in these arotinoids has not eliminated biological activity. […] Consequently, the nature of the terminus group is also important.

HL-60 cells = assay: induction of differentiation of HL-60 cells (NBT reduction); assay type: cell-based, human; details: for cells induced to differentiate: 3 μM; for pEC50: Homo sapiens
Procedure: In order to evaluate the efficacy of the heteroarotinoids to induce HL-60 cell differentiation along the granulocytic maturation pathway, HL-60 cells were grown in a serum-free medium consisting of HRPMI 1640 supplemented with […] 4-(2-hydroxyethyl)-1-piperazineethane sulfonic acid, 5 μg of insulin/mL, and 5 μg of transferrin/mL. These mature cells, unlike the uninduced HL-60, produced superoxide anion when simulated with an appropriate agent, such as TPA. The ability of the individual cells to produce superoxide can be measured by incubating cells with the water-soluble yellow dye, nitroblue tetrazolium (NBT). NBT is reduced to a water-insoluble blue-black formazan by superoxide. This formazan precipitate is associated with those cells that produce superoxide. Thus, the percentage of cells in a population that produce superoxide (NBT-positive cells) can be enumerated under a light microscope.
After incubation for 4 days at 37° C. in a humidified atmosphere of 5% CO2 and air, the capacity of the cells to reduce NBT was determined. Viable cells (10^6) were harvested by centrifugation and suspended in 0.5 mL of RPMI 1640 containing 20% fetal bovine serum. This cell suspension was mixed with an equal volume of phosphate buffered saline containing 1 mg of NBT/mL and […]. The reaction mixture was incubated at 37° C. for 25 minutes, and the reaction was terminated by cooling in an ice water bath. Cytospin slides were prepared from a portion of this reaction mixture and stained with Wright-Giemsa. A minimum of 200 cells were counted under light microscopy to determine the percentage of cells with cell-associated formazan.

[2] = system: tracheal organ cultures obtained from vitamin A deficient hamsters; assay: tissue or blood; assay type: cell-based, hamster; details: for pEC50: Mesocricetus auratus, dose for reversal of keratinization in epithelium of 50% of retinoid-deficient hamster tracheas in organ culture, trans-retinoic acid run with each compound, read-out: ED50 (the source's name); for activity relative to all trans-retinoic acid: log units less than the standard; for activity (in words): reversal of keratinization
Text: An evaluation of the anticancer properties of the heteroarotinoids was made via the standard hamster tracheal organ culture bioassay (see D. L. Newton, W. R. Henderson, and M. B. Sporn in Structure-Activity Relationships of Retinoids, National Cancer Institute, Revised Edition, Feb. 26, 1980; and D. L. Newton, W. R. Henderson, and M. B. Sporn, Cancer Research, 40, 3413 [1980]). The assay involves the ability of a test compound in vitro to reverse keratinization in tracheal organ cultures obtained from vitamin A deficient hamsters. The relationship of vitamin A deficient epithelial tissues and precancerous lesions is well known (see C. E. Orfanos, Retinoids-Advances in Basic Research and Therapy, Springer-Verlag, New York, 1981). For example, the addition of retinoids can reverse the anaplastic epithelial lesions induced in prostate glands by chemical carcinogens (see D. P. Chopra and L. J. Wilkoff, Proc. Am Assoc. Cancer Research, 16, 35 (1975); and I. Lasnitzki, British Journal of Cancer, 9, 434 [1955]). The basic procedure for the bioassay involving the vitamin A deficient hamster tracheal organ culture is presented below with the results obtained for some of the compositions.
The harvested tracheas were cultured in a serum-free medium and were gassed with 50% O2, 45% N2, and 5% CO2. The serum-free culture consists of CMRL Medium 1066 with crystalline bovine insulin (1.0 μg/mL), hydrocortisone hemisuccinate (0.1 μg/mL), glutamine (2 mM), pencillin (100 inits/mL), and streptomycin (100 μg/mL). The cultures were incubated for 3 days at 35°-36° C. After incubation in the retinoid-free medium, some of the tracheas were harvested. Most of the specimens had significant squamous metaplasia. The remaining cultures were divided into 3 groups. The first group was treated with the experimental heteroarotinoid in spectrograde dimethyl sulfoxide (DMSO) at concentrations of 10^-8 M, 10^-9 M, and 10^-10 M (final concentration of DMSO in culture medium was 0.1%). […] A final culture was prepared with only DMSO present.
The culture medium was changed three times per week for 10 days. At the end of that time, all tracheas were harvested and fixed in a 4% (or sometimes 10%) formaldehyde-1% glutaraldehyde solution. The material was then embedded in paraffin and cross-sections of the tracheas were examined under a microscope for the presence of keratin or keratohyaline granules. A synthetic retinoid was judged as having good anticancer activity if neither keratin nor keratohyaline granules were present or if only keratohyaline granules were […]. […] Sloughing of the cells in the culture studies was common with the toxic all trans-retinotic acid but was not observed with the heteroarotinoids in this work.
^a ED50 (M) is the dose for reversal of keratinization in
epithelium of 50% of retinoiddeficient hamster tracheas in organ culture.

[3] = 34 nmol retinoid + TPA, second experiment (standard 13-cis-retinoic acid)
[4] = 13-cis-retinoic acid as the standard
[5] = HL-60, 96 h, 4 days at 37° C., read-out: ED50 (half-maximal response)
[6] = 34 nmol retinoid + TPA, third experiment (standard trans-retinoic acid)
[7] = trans-retinoic acid as a standard
[8] = 17 nmol retinoid + TPA, first experiment
[9] = 17 nmol retinoid + TPA, second experiment

Compound | activity in inhibiting ODC induction by TPA (in words) [1] | cells induced to differentiate (HL-60 cells) | pEC50 (HL-60 cells; [5]) | % Active ([2]; 10^-9 M) | % Active ([2]; 10^-10 M) | pEC50 [2] | activity (in words) [2] | also measured
COC(=O)c1ccc(/C=C(\C)c2ccc3c(c2)C(C)(C)CCO3)cc1 [compound 31, Methyl (E)-4-[2-(3,4-Dihydro-4,4-dimethyl-2-H-1-benzopyran-6-yl)-1-propenyl]benzoate] | less active | approximately 15% | < 5.52 |  |  |  |  | % of Inhibition as Compared to Control [1, 3]: 43%; ODC Activity [1, 3]: 0.95 ± 0.06 nmol CO2 /60 min/mg protein; relative activities in suppressing TPA induction of ODC [1, 4]: 13-cis-retinoic acid 31>34
COC(=O)c1ccc(/C=C(\C)c2ccc3c(c2)C(C)(C)CO3)cc1 [compound 24, Methyl (E)-4-[2-(2,3-Dihydro-3,3-dimethyl-5-benzofuranyl)-1-propenyl]benzoate] | strongest activity; also recorded: strong activity as compared to the control | 3 to 5% | < 5.52 |  |  |  |  | % of Inhibition as Compared to Control [1, 6]: 72%; ODC Activity [1, 6]: 1.5 ± 0.4 nmol CO2 /60 min/mg protein; relative activities in suppressing TPA induction of ODC [1, 7]: trans-retinoic acid >24>35>36
C/C(=C\c1ccc(C(=O)O)cc1)c1ccc2c(c1)C(C)(C)CCO2 [(X = O, R = H), (E)-4-[2-(3,4-Dihydro-4,4-dimethyl-2H-1-benzopyran-6-yl)-1-propenyl]benzoic Acid] |  |  |  | 100% | 57.1% | 9.70 | good activity | % Active ([2]; 10^-8 M): 100%; % Active ([2]; 10^-11 M): 11.14%; activity relative to all trans-retinoic acid [2]: only one log unit less than the standard all trans-retinoic acid
C/C(=C\c1ccc(C=O)cc1)c1ccc2c(c1)C(C)(C)CCO2 [compound 36] | less active |  |  |  |  |  |  | % of Inhibition as Compared to Control [1, 6]: 34%; ODC Activity [1, 6]: 3.5 ± 0.2 nmol CO2 /60 min/mg protein; relative activities in suppressing TPA induction of ODC [1, 7]: trans-retinoic acid >24>35>36
COC(=O)c1ccc(/C=C(/C)c2ccc3c(c2)C(C)(C)CO3)cc1 [compound 25] |  | 3 to 5% |  |  |  |  |  | 
C/C(=C\c1ccc(C(=O)O)cc1)c1ccc2c(c1)C(C)(C)CCO2 [acid derived from 34] |  | approximately 15% | < 5.52 |  |  |  |  | pEC50 (HL-60 cells; HL-60, restated in discussion, read-out: ED50 (the source's name)): > 5.52
C/C(=C\c1ccc(CO)cc1)c1ccc2c(c1)C(C)(C)CCO2 [compound 35, (E)-4-[2-Methyl-2-(4,4-dimethyl-6-chromanyl)]benzyl Alcohol] | less active |  | < 5.52 |  |  |  |  | % of Inhibition as Compared to Control [1, 6]: 68%; ODC Activity [1, 6]: 1.7 ± 0.1 nmol CO2 /60 min/mg protein; relative activities in suppressing TPA induction of ODC [1, 7]: trans-retinoic acid >24>35>36
C/C(=C\c1ccc(C(=O)O)cc1)c1ccc2c(c1)C(C)(C)CO2 [compound 26, (E)-4-[2-(2,3-Dihydro-3,3-dimethyl-5-benzofuranyl)-1-propenyl]benzoic acid] |  |  | < 5.52 |  |  |  |  | 
C/C(=C\c1ccc(C#N)cc1)c1ccc2c(c1)C(C)(C)CCO2 [compound 34] |  |  |  |  |  |  |  | ODC Activity [1, 3]: 1.77 ± 0.32 nmol CO2 /60 min/mg protein; relative activities in suppressing TPA induction of ODC [1, 4]: 13-cis-retinoic acid 31>34
CCOC(=O)c1ccc(/C=C(\C)c2ccc3c(c2)C(C)(C)CC[S+]3[O-])cc1 (stereo not shown) [(X = S)--O, R = C2 H5), Ethyl (E)-4-[2-(3,4-Dihydro-4,4-dimethyl-2H-1-benzothiopyran-1-oxo-6-yl)-1-propenyl]benzoate] |  |  |  | 71.4% | 18.6% | 9.22 | less active but nevertheless displayed activity within the range of the standard | % Active ([2]; 10^-8 M): 71.4%
CC1=C(/C=C/C(C)=C/C=C/C(C)=C\C(=O)O)C(C)(C)CCC1 [13-cis-retinoic acid, reference compound] |  |  |  |  |  |  |  | % of Inhibition as Compared to Control [1, 8]: 89%; ODC Activity [1, 8]: 0.1 ± 0.01 nmol CO2 /30 min/mg protein; % of Inhibition as Compared to Control [1, 9]: 92%; ODC Activity [1, 9]: 0.14 ± 0.04 nmol CO2 /60 min/mg protein; relative activities in suppressing TPA induction of ODC [1, 4]: 13-cis-retinoic acid 31>34
CCOC(=O)c1ccc(/C=C(\C)c2ccc3c(c2)C(C)(C)CCS3)cc1 [1 (X = S, R = C2 H5), Ethyl (E)-4-[2-(3,4-dihydro-4,4-dimethyl-2H-1-benzothiopyran-6-yl)-1-propenyl]benzoate] |  |  |  | 100% | 53.8% | 10.22 | very good activity | % Active ([2]; 10^-11 M): 28.6%; % Active ([2]; 10^-12 M): 33.7%; activity relative to all trans-retinoic acid [2]: approximately one-half log unit less than the all trans-retinoic acid
CCOC(=O)c1ccc(/C=C(\C)c2ccc3c(c2)C(C)(C)CCO3)cc1 [(X = O, R = C2 H5), Ethyl (E)-4-[2-(3,4-Dihydro-4,4-dimethyl-2H-1-benzopyran-6-yl)-1-propenyl]benzoate] |  |  |  | 100% | 50.0% | 10.00 | good activity | % Active ([2]; 10^-11 M): 28.2%; activity relative to all trans-retinoic acid [2]: only one log unit less than the standard all trans-retinoic acid

Reference: patent publication US4826984A, “Heteroarotinoid compounds as anticancer agents” (The Board of Regents for the Oklahoma Agricultural and …, priority 1987, dated 1989)
